# Experimental data from patent US20250000907A1, “ENGINEERED IMMUNE CELLS WITH REDUCED SIRT6 EXPRESSION” (H. LEE MOFFITT CANCER CENTER AND RESEARCH INSTITUTE, INC., priority 2021, published 2025).
# Columns and labels:
# [1] = tested on: CD3+ TILs isolated from B16F10 tumor nodules; test: Seahorse ECAR of TILs isolated from s.c. B16F10 melanoma tumors; type: cell-based, mouse; details: TILs from s.c. B16F10 tumors in C57BL/6 mice, OSS vs. DMSO, FIG. 6F
# Description: Anesthetized mice were injected subcutaneously (s.c.) into the hind limb with 2.5×10^5 B16F10 tumor cells in 200 μl of sterile PBS. Tumors were collected after 2 weeks and TILs were isolated for further analysis.
# Lymphocytes from subcutaneous tumors were isolated by dicing the tissues followed by enzymatic digestion in PBS containing collagenase type 4 (2 mg/ml, Worthington Biochemical) and DNase I (0.25 mg/ml, Sigma-Aldrich) for 45 min with occasional shaking at 37° C. Cell suspensions were then twice filtered through 100 μm and 40 μm cell strainers (Thermo Fisher Scientific) to obtain single-cell suspension followed by a PBS wash and red blood cell lysis using RBC Lysis Buffer (Biolegend). […]
# Extracellular acidification rate (ECAR) and oxygen consumption rate (OCR) were measured using the Seahorse XF analyzer (Agilent technologies). […] For GST, ECAR and OCR were measured under basal conditions and in response to 10 mM glucose, 1 μM oligomycin and 50 mM 2-DG successively to calculate basal glycolytic rate, glycolytic capacity (in response to oligomycin), and glycolytic reserve (glycolytic capacity-basal rate). […] Results were normalized to total protein quantified using Pierce™ BCA Protein Assay Kit (Thermo Fisher Scientific).
# [2] = tested on: Pmel T cells stimulated with gp100; test: Intracellular granzyme B staining by flow cytometry; type: cell-based, mouse; details: activated Pmel T cells, OSS vs. DMSO, FIG. 7B
# Description: For intracellular cytokine staining, cells were firstly stimulated with phorbol 12-myristate 13-acetate (PMA, 10 ng/ml, Sigma) and ionomycin (1 μM/ml, Sigma) for 1 hour followed by GolgiPlug™ treatment (1% c, BD Biosciences) for 6 h and then stained with IFN-γ (BV711, BD Biosciences) and Granzyme B (Alexa647, Biolegend). Cells were acquired on a BD FACSymphony™ A5 and LSR II (Becton Dickinson), and data were analyzed with FlowJo software Version 10.0 software.
# [3] = tested on: Pmel T cells stimulated with gp100; test: IFN-γ ELISPOT assay of Pmel T cells; type: cell-based, mouse; details: activated Pmel T cells, OSS vs. DMSO, FIG. 7C
# Description: The number of IFN-γ producing cells was evaluated in an ELISPOT assay. Briefly, mouse TILs were plated at 1×10^5 cells and co-cultured with 1×10^3 irradiated B16F10 tumor cells (50 Gray) in the presence of the indicated concentrations of OSS, in a 96-well nitrocellulose flat-bottomed plate (ELISPOT plate, Millipore) pre-coated with an anti-mouse IFN-γ antibody (AN-18, Mabtech, Inc.) and incubated for 48 hr at 37° C. For Pmel T cells, splenocytes were first stimulated with gp100 (1 μg/ml, Anaspec) for 48 hr in the presence of the indicated concentrations of OSS and then transferred to the ELISPOT plate pre-coated with an anti-mouse IFN-γ antibody (AN-18, Mabtech, Inc.) for an additional 48 hr. For human CD3+ T cells and TILs, cells were first stimulated with plate-coated anti-CD3 for 48 hr in the presence of vehicle or OSS at the indicated concentration and then transferred to the ELISPOT plate pre-coated with an anti-human IFN-γ antibody (1-DIK, Mabtech, Inc.). PMA (10 ng/ml, Sigma-Aldrich) was used as positive assay control. After washing steps and successive biotinylated anti-IFN-γ antibody (R4-6A2, Mabtech, Inc.) and Streptavidin-HRP (BD Bioscience) labeling, spots were detected using AEC Substrate Kit (BD Biosciences) and counted using an AID ELISPOT Reader System (Autoimmun Diagnostika GmbH).
# [4] = tested on: TILs isolated from B16F10 tumors; test: IFN-γ ELISPOT assay of B16F10 TILs re-challenged with B16F10 cells; type: cell-based, mouse; details: B16F10 TILs re-challenged with B16F10 cells ex vivo, FIG. 7G
# Description: Lymphocytes from subcutaneous tumors were isolated by dicing the tissues followed by enzymatic digestion in PBS containing collagenase type 4 (2 mg/ml, Worthington Biochemical) and DNase I (0.25 mg/ml, Sigma-Aldrich) for 45 min with occasional shaking at 37° C. Cell suspensions were then twice filtered through 100 μm and 40 μm cell strainers (Thermo Fisher Scientific) to obtain single-cell suspension followed by a PBS wash and red blood cell lysis using RBC Lysis Buffer (Biolegend). TILs were finally isolated by density gradient centrifugation using Percoll (GE Healthcare) and were further purified using […] MicroBeads Kit™ (Miltenyi Biotec) according to the manufacturer's instructions. T cell purity was greater than 90% (data not shown). Fresh TILs were used directly for phenotypic and metabolic analyses or were cultured in complete RPMI medium for functional assays.
# The number of IFN-γ producing cells was evaluated in an ELISPOT assay. […] After washing steps and successive biotinylated anti-IFN-γ antibody (R4-6A2, Mabtech, Inc.) and Streptavidin-HRP (BD Bioscience) labeling, spots were detected using AEC Substrate Kit (BD Biosciences) and counted using an AID ELISPOT Reader System (Autoimmun Diagnostika GmbH).
# [5] = tested on: human TILs from NSCLC patient tumor samples; test: IFN-γ ELISPOT assay of human NSCLC TILs; type: cell-based; details: TILs from 6 NSCLC patients, OSS vs. DMSO
# Description: hTILs were maintained in RPMI 1640 Medium, supplemented with 10% human AB serum (Valley Biomedical, Inc.), 1 mM Hepes (Sigma-Aldrich), 1% P/S (Thomas Scientific Inc), 50 μg/ml Gentamicin (ThermoFisher Scientific), 50μM β-mercaptoethanol (ThermoFisher Scientific) and 6000 U/ml of recombinant human IL-2 (Peprotech). For metabolic and functional assays, hTILs were cultured in completed RPMI medium, IL-2 free, on plate-bound anti-CD3 antibody (5 μg/ml; OKT-3, BioXCell) in the presence of vehicle or OSS (Selleck Chemicals) at the indicated concentrations.
# The number of IFN-γ producing cells was evaluated in an ELISPOT assay. Briefly, mouse TILs were plated at 1×10^5 cells and co-cultured with 1×10^3 irradiated B16F10 tumor cells (50 Gray) in the presence of the indicated concentrations of OSS, in a 96-well nitrocellulose flat-bottomed plate (ELISPOT plate, Millipore) pre-coated with an anti-mouse IFN-γ antibody (AN-18, Mabtech, Inc.) and incubated for 48 hr at 37° C. […] After washing steps and successive biotinylated anti-IFN-γ antibody (R4-6A2, Mabtech, Inc.) and Streptavidin-HRP (BD Bioscience) labeling, spots were detected using AEC Substrate Kit (BD Biosciences) and counted using an AID ELISPOT Reader System (Autoimmun Diagnostika GmbH).
# [6] = tested on: stimulated CD8+ T cells from WT vs. Sirt2−/− Pmel mice; test: Seahorse ECAR of stimulated CD8+ T cells from WT vs. Sirt2−/− Pmel mice; type: cell-based, mouse; details: FIG. 3B
# Description: FIG. 3: Sirtuins in the immune system. A, WB of Sirt1-3,5-7 expression in activated CD3+ T cells from WT vs. Sirt2−/− mice. ECAR measured by Seahorse analyzer (B) and IFN-γ ELISPOT assay (C) in stimulated CD8+ T cells from WT vs. Sirt2−/− Pmel mice treated with vehicle (Ctl), or Sirt6 inhibitor (Sirt6i). *P<0.05, **P<0.01, ****P<0.0001.
# Extracellular acidification rate (ECAR) and oxygen consumption rate (OCR) were measured using the Seahorse XF analyzer (Agilent technologies). Glycolysis Stress Test (GST) and mitochondrial stress test (MST) were purchased from Agilent technologies and performed according to the kit manufacturer's instructions. […] For GST, ECAR and OCR were measured under basal conditions and in response to 10 mM glucose, 1 μM oligomycin and 50 mM 2-DG successively to calculate basal glycolytic rate, glycolytic capacity (in response to oligomycin), and glycolytic reserve (glycolytic capacity-basal rate). For MST, OCR and ECAR were measured under basal conditions and in response to sequential injections of 1 μM oligomycin, 1 μM FCCP (Carbonyl cyanide 4-trifluoromethoxyphenylhydrazone) and 0.5 μM rotenone/antimycin A to calculate basal respiration rates (baseline OCR-rotenone/antimycin A OCR), maximal respiration (FCCP OCR-rotenone/antimycin A OCR), and oxidative reserve (maximum respiration rate-basal respiration rate). […]
smiles,measurement,setting,value
O=C(Nc1ccc(O)c(C(=O)O)c1)c1cccc(NC(=O)c2ccco2)c1 [OSS_128167],glycolytic activity of TILs (ECAR),[1],restored
same,granzyme B expression,[2],increases
same,IFN-γ release,[3],increases
same,IFN-γ release,[4],increase
same,IFN-γ production,[5],increased
same,effect on metabolic activity (ECAR) with Sirt2 deficiency,[6]; Sirt2−/− Pmel CD8+ T cells,potentiated
same,metabolic activity of T cells (ECAR),"[6]; activated T cells, Sirt6i vs. vehicle",increases
